The test system of data set [1] is mouse SGLT2 mRNA. The data set is described as follows: Mouse SGLT2 mRNA levels in kidney, wing, gap and length variations (Example 12, Table 61). Format: in vivo. Particulars: mice. On the procedure: ISIS 370717 1-10-1 MOE gapmer was used as a template to make sequence related oligos with varying motifs. The antisense compounds were designed to target different regions of the mouse or rat SGLT2 nucleic acid, using published sequences (GenBank accession number U29881.1, incorporated herein as SEQ ID NO: 1575, and GenBank accession number AJ292928.1, incorporated herein as SEQ ID NO: 1576, respectively).
The antisense compounds were analyzed for their effect on mouse SGLT2 mRNA levels. Data are ranges taken from three experiments in which mice were dosed twice per week for three weeks with 2.5, 0.5 or 0.1 umol/kg of the above MOE gapmers given by intraperitoneal injection. Mice were sacrificed 48 hours following last administration and evaluated for SGLT2 levels in kidney. SGLT2 mRNA levels were determined by RT, real-time PCR as described by other examples herein. PCR results were normalized to an internal ISIS control.

Data set [2] relates to rat SGLT2 mRNA. Put plainly: Rat SGLT2 mRNA levels in kidney, 1-10-1 and 1-10-2 MOE gapmers, Sprague-Dawley rats (Example 13, Table 63). The data set is classed as in vivo. An excerpt: 1-10-1 and 1-10-2 MOE gapmer antisense compounds, provided in Table 62, were designed to target different regions of the mouse or rat SGLT2 RNA. All short antisense compounds in Table 62 are chimeric oligonucleotides (“gapmers”) either 12 or 13 nucleotides in length, composed of a central “gap” segment consisting of ten 2′-deoxynucleotides, which are flanked on the 5′ side by a one-nucleoside “wing” and on the 3′ side by a two or one-nucleotide “wing”. […] All cytidine residues are 5-methylcytidines.
The short antisense compounds were analyzed for their effect on rat SGLT2 mRNA levels. Data are ranges taken from three experiments in which Male Sprague-Dawley rats (170-200 g) were dosed twice per week for three weeks with 450, 150 or 50 nmol/kg of either a 1-10-1 or 1-10-2 MOE gapmer given by intraperitoneal injection. Rats were sacrificed 48 hours following last administration and evaluated for SGLT2 mRNA levels in kidney. Target levels were determined by RT, real-time PCR as described by other examples herein. PCR results were normalized to an internal ISIS control.

The subject of data set [3] is rat SGLT2 mRNA. The data set is described as follows: Rat SGLT2 mRNA levels in kidney, 1-10-1 gapmers at 250 nmol/kg, Sprague-Dawley rats (Example 14, Table 66). Format: in vivo. Particulars: 250 nmol/kg i.p. twice per week for three weeks; Sprague-Dawley rats; kidney. On the procedure:
The effect of the above 1-10-1gapmers (see Table 64 above) on rat SGLT2 mRNA levels. Data are taken from four experiments in which male Sprague-Dawley rats (170-200 g) were dosed twice per week for three weeks with 250 nmol/kg given by intraperitoneal injection. Rats were sacrificed 48 hours following last administration and evaluated for SGLT2 mRNA levels in kidney. Target levels were determined by RT, real-time PCR as described by other examples herein. PCR results were normalized to an internal ISIS control.

The test system of data set [4] is mouse SGLT2 mRNA. The data set is described as follows: Mouse SGLT2 mRNA levels in kidney, 1-10-1 MOE gapmers, Balb/c mice (Example 14, Table 65). Format: in vivo. On the procedure: The short antisense compounds were analyzed for their effect on mouse SGLT2 mRNA levels. Data was taken from three experiments in which Male 6-week old Balb/c mice were dosed twice per week for two weeks with 450, 150, or 50 nmol/kg of one of the above 1-10-1 MOE gapmers given by intraperitoneal injection. Mice were sacrificed 48 hours following last administration and evaluated for SGLT2 mRNA levels in kidney. Target levels were determined by RT, real-time PCR as described by other examples herein. PCR results were normalized to an internal ISIS control.

Data set [5] relates to SGLT-2 mRNA. Put plainly: SGLT-2 mRNA levels in kidney of normal rats after intrajejunal administration (Example 11). The data set is classed as in vivo, rat. The conditions noted are these: 100 mg/kg twice per week intrajejunal.
The subject of data set [6] is SGLT-2 mRNA. The data set is described as follows: SGLT-2 mRNA levels in kidney of ZDF rats, parent versus 12 nucleobase compound (Example 10). The data set is classed as in vivo, rat. On the procedure: In a next study, ZDF rats were dosed intraperitoneally twice per week with 1.5 mg/kg of either ISIS 257016 or ISIS 370717, or with saline at a similar dosing schedule. ISIS 370717 is a 12 nucleobase antisense compound targeted to SGLT-2 nucleic acid comprising the sequence […] […] All cytidine residues are 5-methylcytidines.
The date support that ISIS 257016 is a prodrug having a 12 nucleotide pharmacophore.

e = 2'-O-(2-methoxyethyl) (MOE); d = 2'-deoxy (DNA)

Data on one substance can be found in patent publication US8188059B2, “Compounds and methods for modulating expression of GCGR” (Isis Pharmaceuticals, Inc., priority 2006, dated 2012).

Turning to “ISIS 370717: SGLT2; TAGCCACCAACT 1-10-1 MOE gapmer, phosphorothioate (sugars from the 5' end e1 d10 e1, all phosphorothioate, methylation of C not given here)”, the “% change in SGLT2 expression relative to saline” value with mouse SGLT2 mRNA [1] (0.1 umol/kg i.p. twice per week for three weeks) is recorded as −55%; in the data set with mouse SGLT2 mRNA [1] (0.5 umol/kg i.p. twice per week for three weeks), −70%; in the data set with rat SGLT2 mRNA [2] (50 nmol/kg i.p. twice per week for three weeks) it was −55%; in the data set on rat SGLT2 mRNA [2] (150 nmol/kg i.p. twice per week for three weeks), −70%; in the data set on rat SGLT2 mRNA [2] (450 nmol/kg i.p. twice per week for three weeks), −70%; in the data set on rat SGLT2 mRNA [3] it was −70%. Besides, the entries for the “% change in SGLT2 expression relative to saline” value in the data set with mouse SGLT2 mRNA [4] (50 nmol/kg i.p. twice per week for two weeks), with mouse SGLT2 mRNA [4] (150 nmol/kg i.p. twice per week for two weeks) and in the data set with mouse SGLT2 mRNA [4] (450 nmol/kg i.p. twice per week for two weeks) were −47.5%, −55% and −65%, respectively. For the same substance, the “SGLT-2 mRNA reduced over the controls” value with SGLT-2 mRNA [5] is recorded as “more than 80%”. In addition, in the data set with SGLT-2 mRNA [6] (ZDF rats, 1.5 mg/kg i.p. twice per week, five weeks), the pharmacological activity entry was “similar”. For the same substance, the onset of action result with SGLT-2 mRNA [6] (compared with ISIS 257016) is “faster onset of action”. For the same substance, in the data set on SGLT-2 mRNA [6] (day two after a single dose of 2.8 umoles/kg), the “inhibition of SGLT2 expression in kidney” value is recorded as about 80%.
